Consider two compounds from BindingDB's records for doi:10.1021/jm00087a023 (American Cyanamid, 1992).

This test in a line: Inhibition of PAF induced platelet aggregation in rabbit.

`CCCCCCCCCCCCCCOc1cccc(OP(=O)([O-])Oc2cccc(C[n+]3c[nH]c4ccccc43)c2)c1OC` gave a half-maximal inhibitory concentration (IC50) of 1.49 µM. This counts as single-digit micromolar.

For `CCCCCCCCCCCCCCCCOCC(COP(=O)(O)Oc1cccc(C[P+](c2ccccc2)(c2ccccc2)c2ccccc2)c1)OC` (configuration not stated), the half-inhibitory concentration (IC50) came to 13.6 µM.
